Laboratory results published in patent US10201532B2, “Compounds and their use” (ALLECRA THERAPEUTICS GMBH, priority 2010, dated 2019).

Key:
E. coli Ecoli233 (KPC3) = experiment: Synergistic broth micro-dilution MIC; format: cell-based, Escherichia coli
[1] = tested on: KPC-3 expressing E. coli (J53 R6206); experiment: Synergistic broth micro-dilution MIC (checkerboard); format: cell-based, Escherichia coli
[2] = tested on: KPC2 K. pneumoniae ATCC BAA 1705; experiment: Neutropenic mice thigh infection model (human adapted model); format: in vivo; conditions: Doripenem 70 mg/kg fractionated + BLI 35 mg/kg bolus; end point 8 h
Protocol: Female Swiss Albino mice weighing 24-30 g were used for all studies. Study protocols were reviewed and approved by Institutional Animal Ethical Committee, Orchid Research Laboratories Limited. Mice were rendered neutropenic by intra-peritoneal cyclophosphamide injections. Log phase culture in brain heart infusion broth was injected in to mice thighs. Imipenem or Doripenen alone or in combination were administered sub-cutaneously in decreasing fractionated doses every 15 minutes over the period of 5.5 h (Flückiger, U. et al. “Integration of pharmacokinetics and pharmacodynamics of Imipenem in a human-adapted mouse model’. Antimicrobial Agents and Chemother, 1991, 35(9): 1905-1910). The Compound-1 or tazobactam was administered sub-cutaneously as bolus dose at the start of dosing. Efficacy end point was 6 h in Imipenem studies and 8 h in Doripenen studies.
Three experiments were carried out where Doripenen alone or in combination with compound-1 or tazobactam (two experiments) were evaluated. Doripenem 70 mg/kg was administered in fractionated doses over the period of 5.5 h (Fluckiger, U. et al. “Integration of pharmacokinetics and pharmacodynamics of Imipenem in a human-adapted mouse model’. Antimicrobial Agents and Chemother., 1991, 35(9): 1905-1910). Compound-1 or tazobactam was administered as bolus dose at initiation of therapy. Efficacy end point was 8 h after initiation of therapy.

[3] = tested on: E. cloacae 01 MGH 049 (KPC2, AmpC); experiment: Synergistic broth micro-dilution MIC; format: cell-based; conditions: BLI at 4 μg/mL
[4] = tested on: K. pneumoniae NCTC 13438 (KPC3); experiment: Synergistic broth micro-dilution MIC; format: cell-based, Klebsiella pneumoniae; conditions: BLI at 4 μg/mL
[5] = biological target: T1, crude KPC-2 enzyme extract (Klebsiella pneumoniae, UniProt Q9F663); experiment: β-Lactamase inhibitory assay with CENTA substrate; format: biochemical
T1 construct: enzyme extracts from KPC-2 producing and KPC-3 expressing bacterial gram negative strains were used; endogenous in cells; host or cells: KPC-2 producing gram-negative strain
Text: (§1) The Compound-1 was subjected to β-lactamase inhibitory assay to determine IC50 and to compare that with the comparator BLI agents as described elsewhere (Bebrone et. al., Antimicrob. Agents. Chemother, 2001, 45(6): 1868-1871; Jamieson et. al, Antimicrob. Agents. Chemother, 2003, 47(5): 1652-1657). Briefly, enzyme extracts from KPC-2 producing and KPC-3 expressing bacterial gram negative strains were used to study the β-lactamase inhibitory activity and determination of IC50 using CENTA as the substrate for β-lactamase.

[6] = biological target: crude KPC-3 enzyme extract (UniProt Q9F663, H272Y, species not given); experiment: β-Lactamase inhibitory assay with CENTA substrate; format: biochemical; conditions: also headed KPC2
Text: as §1

[7] = tested on: KPC-2 producing K. pneumoniae (ATCC BAA-1705); experiment: Synergistic broth micro-dilution MIC (checkerboard); format: cell-based, Klebsiella pneumoniae; conditions: ATCC BAA-1705
[8] = tested on: KPC2 K. pneumoniae ATCC BAA 1705; experiment: Mice systemic infection model; format: in vivo; conditions: sub-cutaneous, printed as piperacillin:BLI dose

T1 sequence (Q9F663 25-293 limits assumed): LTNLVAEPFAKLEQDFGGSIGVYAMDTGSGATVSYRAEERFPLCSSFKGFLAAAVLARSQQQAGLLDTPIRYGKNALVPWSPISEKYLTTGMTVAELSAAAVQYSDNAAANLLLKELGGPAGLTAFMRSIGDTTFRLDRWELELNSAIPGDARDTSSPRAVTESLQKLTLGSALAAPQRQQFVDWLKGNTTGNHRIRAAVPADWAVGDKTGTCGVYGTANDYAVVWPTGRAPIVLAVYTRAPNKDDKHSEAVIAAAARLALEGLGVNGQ

Question: Which results are given for `C[C@]1(Cn2ccnn2)[C@H](C(=O)O)N2C(=O)C[C@H]2S1(=O)=O` [Tazobactam]?
Answer: MIC of Imipenem in combination with BLI (E. coli Ecoli233 (KPC3); BLI at 4 μg/mL): 8 µg/mL; MIC of Imipenem in combination with BLI (E. coli Ecoli233 (KPC3); BLI at 16 μg/mL): 8 µg/mL; MIC of Cefepime in combination with BLI ([1]; BLI at 2 μg/mL): 16 µg/mL; MIC of Cefotaxime in combination with BLI ([1]; BLI at 2 μg/mL): 8 µg/mL; MIC of Ceftazidime in combination with BLI ([1]; BLI at 2 μg/mL): 32 µg/mL; MIC of Ceftobiprole in combination with BLI ([1]; BLI at 2 μg/mL): 32 µg/mL; MIC of Imipenem in combination with BLI ([1]; BLI at 2 μg/mL): 2 µg/mL; MIC of Meropenem in combination with BLI ([1]; BLI at 2 μg/mL): 1 µg/mL; MIC of Cefepime in combination with BLI ([1]; BLI at 4 μg/mL): 8 µg/mL; MIC of Cefotaxime in combination with BLI ([1]; BLI at 4 μg/mL): 8 µg/mL; MIC of Ceftazidime in combination with BLI ([1]; BLI at 4 μg/mL): 32 µg/mL; MIC of Ceftobiprole in combination with BLI ([1]; BLI at 4 μg/mL): 16 µg/mL; MIC of Imipenem in combination with BLI ([1]; BLI at 4 μg/mL): 2 µg/mL; MIC of Meropenem in combination with BLI ([1]; BLI at 4 μg/mL): 0.5 µg/mL; MIC of Cefepime in combination with BLI ([1]; BLI at 8 μg/mL): 4 µg/mL; MIC of Cefotaxime in combination with BLI ([1]; BLI at 8 μg/mL): 4 µg/mL; MIC of Ceftazidime in combination with BLI ([1]; BLI at 8 μg/mL): 32 µg/mL; MIC of Ceftobiprole in combination with BLI ([1]; BLI at 8 μg/mL): 16 µg/mL; MIC of Imipenem in combination with BLI ([1]; BLI at 8 μg/mL): 1 µg/mL; MIC of Meropenem in combination with BLI ([1]; BLI at 8 μg/mL): 0.5 µg/mL; MIC of Imipenem in combination with BLI ([1]; BLI at 16 μg/mL): 1 µg/mL; MIC of Meropenem in combination with BLI ([1]; BLI at 16 μg/mL): <0.125 µg/mL; MIC ([1]; Escherichia coli, read-out: MIC of BLI alone, BLI alone): > 8 µg/mL; Bacterial load (range), Doripenem + BLI [2]: 1.19 × 10^7-1.6 × 10^7 CFU/thigh; MIC of Imipenem in combination with BLI [3]: 8 µg/mL; MIC of Imipenem in combination with BLI [4]: 64 µg/mL; IC50 [5]: 980 µM; IC50 [6]: 71 µM; MIC of Cefquinome in combination with BLI ([7]; BLI at 1 μg/mL): >64 µg/mL; MIC of Ceftiofur in combination with BLI ([7]; BLI at 1 μg/mL): >64 µg/mL; MIC of Cefepime in combination with BLI ([7]; BLI at 2 μg/mL): 64 µg/mL; MIC of Cefotaxime in combination with BLI ([7]; BLI at 2 μg/mL): ≥64 µg/mL; MIC of Cefquinome in combination with BLI ([7]; BLI at 2 μg/mL): >64 µg/mL; MIC of Ceftazidime in combination with BLI ([7]; BLI at 2 μg/mL): >64 µg/mL; MIC of Ceftiofur in combination with BLI ([7]; BLI at 2 μg/mL): >64 µg/mL; MIC of Ceftobiprole in combination with BLI ([7]; BLI at 2 μg/mL): >64 µg/mL; MIC of Imipenem in combination with BLI ([7]; BLI at 2 μg/mL): 16 µg/mL; MIC of Meropenem in combination with BLI ([7]; BLI at 2 μg/mL): 32 µg/mL; MIC of Aztreonam in combination with BLI ([7]; BLI at 4 μg/mL): >64 µg/mL; MIC of Cefadroxil in combination with BLI ([7]; BLI at 4 μg/mL): >64 µg/mL; MIC of Cefalonium in combination with BLI ([7]; BLI at 4 μg/mL): >64 µg/mL; MIC of Cefepime in combination with BLI ([7]; BLI at 4 μg/mL): 64 µg/mL; MIC of Cefotaxime in combination with BLI ([7]; BLI at 4 μg/mL): 32 to 64 µg/mL; MIC of Cefquinome in combination with BLI ([7]; BLI at 4 μg/mL): >64 µg/mL; MIC of Ceftazidime in combination with BLI ([7]; BLI at 4 μg/mL): >64 µg/mL; MIC of Ceftiofur in combination with BLI ([7]; BLI at 4 μg/mL): >64 µg/mL; MIC of Ceftobiprole in combination with BLI ([7]; BLI at 4 μg/mL): >64 µg/mL; MIC of Ertapenem in combination with BLI ([7]; BLI at 4 μg/mL): >64 µg/mL; MIC of Faropenem in combination with BLI ([7]; BLI at 4 μg/mL): >64 µg/mL; MIC of Imipenem in combination with BLI ([7]; BLI at 4 μg/mL): 16 µg/mL; MIC of Meropenem in combination with BLI ([7]; BLI at 4 μg/mL): 32 µg/mL; MIC of Cefepime in combination with BLI ([7]; BLI at 8 μg/mL): 32 µg/mL; MIC of Cefotaxime in combination with BLI ([7]; BLI at 8 μg/mL): 32 µg/mL; MIC of Cefquinome in combination with BLI ([7]; BLI at 8 μg/mL): 64 µg/mL; MIC of Ceftazidime in combination with BLI ([7]; BLI at 8 μg/mL): >64 µg/mL; MIC of Ceftiofur in combination with BLI ([7]; BLI at 8 μg/mL): >64 µg/mL; MIC of Ceftobiprole in combination with BLI ([7]; BLI at 8 μg/mL): >64 µg/mL; MIC of Ertapenem in combination with BLI ([7]; BLI at 8 μg/mL): >64 µg/mL; MIC of Faropenem in combination with BLI ([7]; BLI at 8 μg/mL): >64 µg/mL; MIC of Imipenem in combination with BLI ([7]; BLI at 8 μg/mL): 8 to 16 µg/mL; MIC of Meropenem in combination with BLI ([7]; BLI at 8 μg/mL): 16 to 32 µg/mL; MIC of Aztreonam in combination with BLI ([7]; BLI at 16 μg/mL): >64 µg/mL; MIC of Cefadroxil in combination with BLI ([7]; BLI at 16 μg/mL): >64 µg/mL; MIC of Cefalonium in combination with BLI ([7]; BLI at 16 μg/mL): >64 µg/mL; MIC of Cefepime in combination with BLI ([7]; BLI at 16 μg/mL): 32 µg/mL; MIC of Cefotaxime in combination with BLI ([7]; BLI at 16 μg/mL): 32 µg/mL; MIC of Cefquinome in combination with BLI ([7]; BLI at 16 μg/mL): 64 µg/mL; MIC of Ceftazidime in combination with BLI ([7]; BLI at 16 μg/mL): >64 µg/mL; MIC of Ceftiofur in combination with BLI ([7]; BLI at 16 μg/mL): >64 µg/mL; MIC of Ceftobiprole in combination with BLI ([7]; BLI at 16 μg/mL): >64 µg/mL; MIC of Ertapenem in combination with BLI ([7]; BLI at 16 μg/mL): 64 µg/mL; MIC of Faropenem in combination with BLI ([7]; BLI at 16 μg/mL): >64 µg/mL; MIC of Imipenem in combination with BLI ([7]; BLI at 16 μg/mL): 8 µg/mL; MIC of Meropenem in combination with BLI ([7]; BLI at 16 μg/mL): 8 to 16 µg/mL; MIC of Cefquinome in combination with BLI ([7]; BLI at 32 μg/mL): 64 µg/mL; MIC of Ceftiofur in combination with BLI ([7]; BLI at 32 μg/mL): 64 µg/mL; MIC of Aztreonam in combination with BLI ([7]; BLI at 64 μg/mL): >64 µg/mL; MIC of Cefadroxil in combination with BLI ([7]; BLI at 64 μg/mL): >64 µg/mL; MIC of Cefalonium in combination with BLI ([7]; BLI at 64 μg/mL): >64 µg/mL; MIC of Cefepime in combination with BLI ([7]; BLI at 64 μg/mL): 32 µg/mL; MIC of Cefotaxime in combination with BLI ([7]; BLI at 64 μg/mL): 32 µg/mL; MIC of Cefquinome in combination with BLI ([7]; BLI at 64 μg/mL): 64 µg/mL; MIC of Ceftazidime in combination with BLI ([7]; BLI at 64 μg/mL): 64 µg/mL; MIC of Ceftiofur in combination with BLI ([7]; BLI at 64 μg/mL): 64 µg/mL; MIC of Ceftobiprole in combination with BLI ([7]; BLI at 64 μg/mL): >64 µg/mL; MIC of Ertapenem in combination with BLI ([7]; BLI at 64 μg/mL): 32 µg/mL; MIC of Faropenem in combination with BLI ([7]; BLI at 64 μg/mL): >64 µg/mL; MIC of Imipenem in combination with BLI ([7]; BLI at 64 μg/mL): 4 to 8 µg/mL; MIC of Meropenem in combination with BLI ([7]; BLI at 64 μg/mL): 4 µg/mL; ED50 of Piperacillin:BLI at 1:1 ratio [8]: >200:>200 mg/kg; ED50 of Piperacillin:BLI at 1:1 ratio ([8]; listed as tazobactam): > 200 mg/kg
